Measured values reported in US8952024B2, “Herbicidal pyrimidone derivatives” (E I du Pont de Nemours and Company, priority 2009, dated 2015).
Like-named read-outs stand apart in the source and are kept apart here.

Key:
Format in all cases: in vivo
[1] = test system: barnyardgrass (Echinochloa crus-galli); assay: Test A pre-/postemergence plant response; settings: Echinochloa crus-galli, 240 h; for pest or weed control at 125 g/ha: 125 g ai/ha; for pest or weed control at 500 g/ha: 500 g ai/ha
Procedure, shortened: (§1)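 Plants grown from seed in a loam soil and sand mix received test compounds both as a preemergence soil spray and, at the same time, as a postemergence spray at the one- to two-leaf stage. Injury was judged visually against untreated controls roughly ten days later, 0 meaning no effect and 100 complete control.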

[2] = test system: pigweed (Amaranthus retroflexus); assay: Test A pre-/postemergence plant response; settings: Amaranthus retroflexus, 240 h; for pest or weed control at 125 g/ha: 125 g ai/ha; for pest or weed control at 500 g/ha: 500 g ai/ha
Procedure, shortened: as §1

corn (Zea mays) = assay: Test A pre-/postemergence plant response; settings: Zea mays, 240 h; for Corn plant response rating (crop injury, 0 = no effect, 100 = complete kill) at 500 g/ha: 500 g ai/ha
Procedure, shortened: as §1

[3] = test system: giant foxtail (Setaria faberii); assay: Test A pre-/postemergence plant response; settings: Setaria faberi, 240 h; for pest or weed control at 125 g/ha: 125 g ai/ha; for pest or weed control at 500 g/ha: 500 g ai/ha
Procedure, shortened: as §1

[4] = test system: velvetleaf (Abutilon theophrasti); assay: Test A pre-/postemergence plant response; settings: Abutilon theophrasti, 240 h; for pest or weed control at 125 g/ha: 125 g ai/ha; for pest or weed control at 500 g/ha: 500 g ai/ha
Procedure, shortened: as §1

[5] = test system: wheat (Triticum aestivum); assay: Test A pre-/postemergence plant response; settings: Triticum aestivum, 240 h; for plant injury at 125 g/ha: 125 g ai/ha; for plant injury at 500 g/ha: 500 g ai/ha
Procedure, shortened: as §1

[6] = test system: morningglory (Ipomoea spp.); assay: Test A pre-/postemergence plant response; settings: Ipomoea, 240 h; for pest or weed control at 125 g/ha: 125 g ai/ha; for pest or weed control at 500 g/ha: 500 g ai/ha
Procedure, shortened: as §1

[7] = test system: large crabgrass (Digitaria sanguinalis); assay: Test A pre-/postemergence plant response; settings: Digitaria sanguinalis, 240 h; for pest or weed control at 125 g/ha: 125 g ai/ha; for pest or weed control at 500 g/ha: 500 g ai/ha
Procedure, shortened: as §1

[8] = test system: barnyardgrass (Echinochloa crus-galli); assay: Test B flooded paddy test; settings: Echinochloa crus-galli, 360 h
Procedure, shortened: (§2)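 Greenhouse-held for 13 to 15 days, treated pots were compared visually with controls and scored 0–100 (0, no effect). Treatment had been made into paddy water kept at 3 cm above the soil, with plants at the 2-leaf stage.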

[9] = test system: umbrella sedge (Cyperus difformis); assay: Test B flooded paddy test; settings: Cyperus difformis, 360 h
Procedure, shortened: as §2

[10] = test system: ducksalad (Heteranthera limosa); assay: Test B flooded paddy test; settings: Heteranthera limosa, 360 h
Procedure, shortened: as §2

rice (Oryza sativa) = assay: Test B flooded paddy test; settings: Oryza sativa
Procedure, shortened: as §2

O=C1CCCC(O)=C1C(=O)c1cnc(-c2ccccc2)n(Cc2ccccc2)c1=O [Compound 17, 5-[(2-hydroxy-6-oxo-1-cyclohexen-1-yl)carbonyl]-2-phenyl-3-(phenylmethyl)-4(3H)-pyrimidinone]
pest or weed control at 125 g/ha ([1]; post-emergence, Postemergence, visual injury, 0 to 100 scale (0 no effect, 100 complete control), approx. ten days, read-out: Barnyardgrass plant response rating): 10% | pest or weed control at 500 g/ha ([1]; post-emergence, Postemergence, 0 to 100 scale, 0 = no effect, 100 = complete control, approx. ten days, read-out: Plant response rating, Barnyardgrass): 70% | pest or weed control at 125 g/ha ([1]; pre-emergence, Preemergence, 0 to 100 scale, 0 = no effect, 100 = complete control, read-out: Plant response rating, Barnyardgrass): 0% | pest or weed control at 500 g/ha ([1]; pre-emergence, Preemergence, visual injury, 0 to 100 scale (0 no effect, 100 complete control), approx. ten days, read-out: Plant response rating, Barnyardgrass): 80% | pest or weed control at 125 g/ha ([2]; post-emergence, Postemergence, visual injury, 0 to 100 scale (0 no effect, 100 complete control), approx. ten days, read-out: Pigweed plant response rating): 80% | pest or weed control at 500 g/ha ([2]; post-emergence, Postemergence, 0 to 100 scale, 0 = no effect, 100 = complete control, approx. ten days, read-out: Plant response rating, Pigweed): 100% | pest or weed control at 125 g/ha ([2]; pre-emergence, Preemergence, 0 to 100 scale, 0 = no effect, 100 = complete control, read-out: Plant response rating, Pigweed): 80% | pest or weed control at 500 g/ha ([2]; pre-emergence, Preemergence, visual injury, 0 to 100 scale (0 no effect, 100 complete control), approx. ten days, read-out: Plant response rating, Pigweed): 90% | plant injury at 125 g/ha (corn (Zea mays); post-emergence, Postemergence, 125 g ai/ha, visual injury, 0 to 100 scale (0 no effect, 100 complete control), approx. ten days, read-out: Corn plant response rating): 0% | Corn plant response rating (crop injury, 0 = no effect, 100 = complete kill) at 500 g/ha (corn (Zea mays); post-emergence, Postemergence, 0 to 100 scale, 0 = no effect, 100 = complete control, approx. ten days): 10% | Corn plant response rating (crop injury, 0 = no effect, 100 = complete kill) at 125 g/ha (corn (Zea mays); pre-emergence, Preemergence, 125 g ai/ha, 0 to 100 scale, 0 = no effect, 100 = complete control): 0% | Corn plant response rating (crop injury, 0 = no effect, 100 = complete kill) at 500 g/ha (corn (Zea mays); pre-emergence, Preemergence, visual injury, 0 to 100 scale (0 no effect, 100 complete control), approx. ten days): 0% | pest or weed control at 125 g/ha ([3]; post-emergence, Postemergence, visual injury, 0 to 100 scale (0 no effect, 100 complete control), approx. ten days, read-out: Foxtail, Giant plant response rating): 0% | pest or weed control at 500 g/ha ([3]; post-emergence, Postemergence, 0 to 100 scale, 0 = no effect, 100 = complete control, approx. ten days, read-out: Plant response rating, Foxtail, Giant): 30% | pest or weed control at 125 g/ha ([3]; pre-emergence, Preemergence, 0 to 100 scale, 0 = no effect, 100 = complete control, read-out: Plant response rating, Foxtail, Giant): 0% | pest or weed control at 500 g/ha ([3]; pre-emergence, Preemergence, visual injury, 0 to 100 scale (0 no effect, 100 complete control), approx. ten days, read-out: Plant response rating, Foxtail, Giant): 20% | pest or weed control at 125 g/ha ([4]; post-emergence, Postemergence, visual injury, 0 to 100 scale (0 no effect, 100 complete control), approx. ten days, read-out: Velvetleaf plant response rating): 100% | pest or weed control at 500 g/ha ([4]; post-emergence, Postemergence, 0 to 100 scale, 0 = no effect, 100 = complete control, approx. ten days, read-out: Plant response rating, Velvetleaf): 100% | pest or weed control at 125 g/ha ([4]; pre-emergence, Preemergence, 0 to 100 scale, 0 = no effect, 100 = complete control, read-out: Plant response rating, Velvetleaf): 40% | pest or weed control at 500 g/ha ([4]; pre-emergence, Preemergence, visual injury, 0 to 100 scale (0 no effect, 100 complete control), approx. ten days, read-out: Plant response rating, Velvetleaf): 100% | plant injury at 125 g/ha ([5]; post-emergence, Postemergence, visual injury, 0 to 100 scale (0 no effect, 100 complete control), approx. ten days, read-out: Wheat plant response rating): 0% | plant injury at 500 g/ha ([5]; post-emergence, Postemergence, 0 to 100 scale, 0 = no effect, 100 = complete control, approx. ten days, read-out: Plant response rating, Wheat): 10% | plant injury at 125 g/ha ([5]; pre-emergence, Preemergence, 0 to 100 scale, 0 = no effect, 100 = complete control, read-out: Plant response rating, Wheat): 0% | plant injury at 500 g/ha ([5]; pre-emergence, Preemergence, visual injury, 0 to 100 scale (0 no effect, 100 complete control), approx. ten days, read-out: Plant response rating, Wheat): 0% | pest or weed control at 125 g/ha ([6]; post-emergence, Postemergence, visual injury, 0 to 100 scale (0 no effect, 100 complete control), approx. ten days, read-out: Morningglory plant response rating): 20% | pest or weed control at 500 g/ha ([6]; post-emergence, Postemergence, 0 to 100 scale, 0 = no effect, 100 = complete control, approx. ten days, read-out: Plant response rating, Morningglory): 70% | pest or weed control at 125 g/ha ([6]; pre-emergence, Preemergence, 0 to 100 scale, 0 = no effect, 100 = complete control, read-out: Plant response rating, Morningglory): 0% | pest or weed control at 500 g/ha ([6]; pre-emergence, Preemergence, visual injury, 0 to 100 scale (0 no effect, 100 complete control), approx. ten days, read-out: Plant response rating, Morningglory): 10% | pest or weed control at 125 g/ha ([7]; post-emergence, Postemergence, visual injury, 0 to 100 scale (0 no effect, 100 complete control), approx. ten days, read-out: Crabgrass, Large plant response rating): 10% | pest or weed control at 500 g/ha ([7]; post-emergence, Postemergence, 0 to 100 scale, 0 = no effect, 100 = complete control, approx. ten days, read-out: Plant response rating, Crabgrass, Large): 70% | pest or weed control at 125 g/ha ([7]; pre-emergence, Preemergence, 0 to 100 scale, 0 = no effect, 100 = complete control, read-out: Plant response rating, Crabgrass, Large): 20% | pest or weed control at 500 g/ha ([7]; pre-emergence, Preemergence, visual injury, 0 to 100 scale (0 no effect, 100 complete control), approx. ten days, read-out: Plant response rating, Crabgrass, Large): 100% | pest or weed control at 250 g/ha ([8]; 250 g ai/ha, flooded paddy test, visual rating on 0 to 100 scale (0 no effect, 100 complete control) after 13 to 15 days, read-out: Plant response rating, Flood, Barnyardgrass): 25% | pest or weed control at 31 g/ha ([8]; Flood (flooded paddy test), 31 g ai/ha, scale of 0 to 100 where 0 is no effect and 100 is complete control, 13 to 15 days, read-out: Plant response rating, Barnyardgrass): 0% | pest or weed control at 62 g/ha ([8]; Flood (flooded paddy test), 62 g ai/ha, scale 0 to 100, 0 is no effect, 100 is complete control, 13 to 15 days, read-out: Plant response rating, Barnyardgrass): 20% | pest or weed control at 125 g/ha ([8]; Flood (flooded paddy test), 125 g ai/ha, scale 0 to 100, 0 is no effect, 100 is complete control, 13 to 15 days, read-out: Plant response rating, Barnyardgrass): 25% | pest or weed control at 250 g/ha ([9]; 250 g ai/ha, flooded paddy test, visual rating on 0 to 100 scale (0 no effect, 100 complete control) after 13 to 15 days, read-out: Plant response rating, Flood, Sedge, Umbrella): 80% | pest or weed control at 31 g/ha ([9]; Flood (flooded paddy test), 31 g ai/ha, scale of 0 to 100 where 0 is no effect and 100 is complete control, 13 to 15 days, read-out: Plant response rating, Sedge, Umbrella): 0% | pest or weed control at 62 g/ha ([9]; Flood (flooded paddy test), 62 g ai/ha, scale 0 to 100, 0 is no effect, 100 is complete control, 13 to 15 days, read-out: Plant response rating, Sedge, Umbrella): 70% | pest or weed control at 125 g/ha ([9]; Flood (flooded paddy test), 125 g ai/ha, scale 0 to 100, 0 is no effect, 100 is complete control, 13 to 15 days, read-out: Plant response rating, Sedge, Umbrella): 70% | pest or weed control at 250 g/ha ([10]; 250 g ai/ha, flooded paddy test, visual rating on 0 to 100 scale (0 no effect, 100 complete control) after 13 to 15 days, read-out: Plant response rating, Flood, Ducksalad): 45% | pest or weed control at 31 g/ha ([10]; Flood (flooded paddy test), 31 g ai/ha, scale of 0 to 100 where 0 is no effect and 100 is complete control, 13 to 15 days, read-out: Plant response rating, Ducksalad): 0% | pest or weed control at 62 g/ha ([10]; Flood (flooded paddy test), 62 g ai/ha, scale 0 to 100, 0 is no effect, 100 is complete control, 13 to 15 days, read-out: Plant response rating, Ducksalad): 30% | pest or weed control at 125 g/ha ([10]; Flood (flooded paddy test), 125 g ai/ha, scale 0 to 100, 0 is no effect, 100 is complete control, 13 to 15 days, read-out: Plant response rating, Ducksalad): 30% | plant injury at 250 g/ha (rice (Oryza sativa); 250 g ai/ha, flooded paddy test, visual rating on 0 to 100 scale (0 no effect, 100 complete control) after 13 to 15 days, read-out: Plant response rating, Flood, Rice): 15% | plant injury at 31 g/ha (rice (Oryza sativa); Flood (flooded paddy test), 31 g ai/ha, scale of 0 to 100 where 0 is no effect and 100 is complete control, 13 to 15 days, read-out: Plant response rating, Rice): 0% | plant injury at 62 g/ha (rice (Oryza sativa); Flood (flooded paddy test), 62 g ai/ha, scale 0 to 100, 0 is no effect, 100 is complete control, 13 to 15 days, read-out: Plant response rating, Rice): 0% | plant injury at 125 g/ha (rice (Oryza sativa); Flood (flooded paddy test), 125 g ai/ha, scale 0 to 100, 0 is no effect, 100 is complete control, 13 to 15 days, read-out: Plant response rating, Rice): 0%
